Assay results from ChEMBL document CHEMBL1157728, “Novel small molecule bradykinin B1 receptor antagonists. Part 2: 5-membered diaminoheterocycles” (Bioorg Med Chem Lett, 2010).
≈ marks a conversion by molar mass, not a printed value.

Experiments:
B1 bradykinin receptor = target: T1, B1 bradykinin receptor (Homo sapiens, UniProt P46663); assay: Antagonist activity at bradykinin B1 receptor in human IMR90 cells pretreated with IL1-beta assessed as inhibition of DAKD-induced calcium mobilization; assay type: functional, cell-based, IMR-90
T1 sequence (P46663 whole entry): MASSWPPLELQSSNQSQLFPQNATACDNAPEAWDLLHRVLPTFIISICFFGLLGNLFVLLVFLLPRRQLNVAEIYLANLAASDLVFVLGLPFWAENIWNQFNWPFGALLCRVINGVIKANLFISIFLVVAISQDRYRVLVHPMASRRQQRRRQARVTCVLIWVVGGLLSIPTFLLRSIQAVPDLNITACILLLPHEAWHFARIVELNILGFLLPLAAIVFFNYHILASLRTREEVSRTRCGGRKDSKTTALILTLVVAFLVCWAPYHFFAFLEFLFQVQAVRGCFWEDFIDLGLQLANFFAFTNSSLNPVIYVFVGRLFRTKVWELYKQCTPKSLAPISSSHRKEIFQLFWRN

[1] = Efflux ratio of permeability from basolateral to apical side to apical to basolateral side in human Caco-2 cells; assay type: ADME, cell-based
[2] = Solubility in aqueous buffer; assay type: physicochemical
[3] = Solubility of the compound; assay type: physicochemical
[4] = Solubility in water; assay type: physicochemical
[5] = Metabolic stability in human liver microsomes assessed as compound remaining after 1 hr; assay type: ADME, Microsome; details: read-out: Stability
[6] = Apparent permeability from apical to basolateral side of human Caco-2 cells; assay type: ADME, cell-based; details: read-out: permeability

Row | SMILES | IC50 (B1 bradykinin receptor) [nM] | other results
1 | COC(=O)c1c(F)cccc1-c1ccc(CNC(C)=O)c(F)c1 | 35000 | 
2 | COc1cc(C(=O)Nc2cn[nH]c2NCc2ccc(-c3cc(Cl)cc(F)c3-c3noc(C)n3)cc2F)on1 | 3.5 | 
3 | COc1cc(C(=O)Nn2c(NCc3ccc(-c4cc(Cl)cc(F)c4-c4noc(C)n4)cc3F)nc3ccccc32)on1 | 0.7 | efflux ratio [1]: 7.1; solubility [2]: 14 µM (≈ 8.29 µg/mL)
4 | CC(=O)Nn1c(NCc2ccc(-c3cc(Cl)cc(F)c3-c3noc(C)n3)cc2F)nc(C)c1C | 180 | 
5 | CC(=O)Nc1nsnc1NCc1ccc(-c2cc(Cl)cc(F)c2-c2noc(C)n2)cc1F | 1.7 | 
6 | CC(=O)Nn1ccnc1NCc1ccc(-c2cc(Cl)cc(F)c2-c2noc(C)n2)cc1F | 1.6 | 
7 | CC(=O)Nc1nonc1NCc1ccc(-c2cc(Cl)cc(F)c2-c2noc(C)n2)cc1F | 7.7 | solubility [3]: 21 µM (≈ 9.68 µg/mL)
8 | COC(=O)c1c(F)cccc1-c1ccc(CNc2nc3ccccc3[nH]2)c(F)c1 | 3500 | 
9 | CC(=O)Nn1c(NCc2ccc(-c3cc(Cl)cc(F)c3-c3noc(C)n3)cc2F)nc2ccccc21 | 4.6 | solubility [4]: 40 µM (≈ 20.4 µg/mL)
10 | CC(=O)Nn1c(Cl)cnc1NCc1ccc(-c2cc(Cl)cc(F)c2-c2noc(C)n2)cc1F | 0.3 | 
11 | COC(=O)c1c(F)cccc1-c1ccc(CN2CCCC2=O)c(F)c1 | 42000 | 
12 | COC(=O)c1c(F)cccc1-c1ccc(CN2Cc3ccccc3C2=O)c(F)c1 | 6100 | 
13 | COc1cc(C(=O)Nc2nonc2NCc2ccc(-c3cc(Cl)cc(F)c3-c3noc(C)n3)cc2F)on1 | 1 | efflux ratio [1]: 1; remaining at 1 h [5]: 61%; Papp A→B [6]: 48 ×10⁻⁶ cm/s; solubility [3]: 12 µM (≈ 6.53 µg/mL)
14 | COc1cc(C(=O)Nc2nsnc2NCc2ccc(-c3cc(Cl)cc(F)c3-c3noc(C)n3)cc2F)on1 | 0.6 | 
15 | COc1cc(C(=O)Nn2ccnc2NCc2ccc(-c3cc(Cl)cc(F)c3-c3noc(C)n3)cc2F)on1 | 1.7 | solubility [4]: 42 µM (≈ 22.8 µg/mL)
16 | COc1cc(C(=O)Nn2c(NCc3ccc(-c4cc(Cl)cc(F)c4-c4noc(C)n4)cc3F)nc(C)c2C)on1 | 85 | solubility [4]: 40 µM (≈ 22.8 µg/mL)
